Reference: ChEMBL document CHEMBL1201862, “PubChem BioAssay data set” (2004)
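How tested: cells in 96-well plates exposed to compound for 48 hours at five concentrations. Abbreviation: GI50, concentration required for 50% inhibition of growth.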 Active and inactive are the calls of the source. Rule as the data show it: active = GI50 up to about 1.1 µM and inactive = higher.

Key:
Assay in all cases: inhibition of tumour cell growth, NCI panel, 48 h
RPMI-8226 = system: RPMI-8226
MOLT-4 = system: MOLT-4
DU-145 = system: DU-145
NCI-H23 = system: NCI-H23
COLO 205 = system: COLO 205
OVCAR-8 = system: OVCAR-8
OVCAR-3 = system: OVCAR-3
CAKI-1 = system: CAKI-1
U-251 = system: U-251
SK-OV-3 = system: SK-OV-3
T47D = system: T47D
SF-268 = system: SF-268
OVCAR-4 = system: OVCAR-4
HOP-92 = system: HOP-92
TK-10 = system: TK-10
UACC-257 = system: UACC-257
M14 = system: M14
SR = system: SR
MDA-MB-435 = system: MDA-MB-435
SW-620 = system: SW-620
HOP-62 = system: HOP-62
SNB-75 = system: SNB-75
HCT-15 = system: HCT-15
SF-295 = system: SF-295
BT-549 = system: BT-549
ACHN = system: ACHN
IGROV-1 = system: IGROV-1
KM12 = system: KM12
NCI-H522 = system: NCI-H522
MDA-N = system: MDA-N
HCC 2998 = system: HCC 2998
SK-MEL-28 = system: SK-MEL-28
LOX IMVI = system: LOX IMVI
MCF7 = system: MCF7
CCRF-CEM = system: CCRF-CEM
SNB-19 = system: SNB-19
MDA-MB-231 = system: MDA-MB-231
NCI/ADR-RES = system: NCI/ADR-RES
HL-60 = system: HL-60
K562 = system: K562
SK-MEL-5 = system: SK-MEL-5
UACC-62 = system: UACC-62
786-0 = system: 786-0
A549 = system: A549
SN12C = system: SN12C
PC-3 = system: PC-3
Malme-3M = system: Malme-3M
HT-29 = system: HT-29
UO-31 = system: UO-31
NCI-H226 = system: NCI-H226
SF-539 = system: SF-539
RXF 393 = system: RXF 393
HCT-116 = system: HCT-116
OVCAR-5 = system: OVCAR-5
SK-MEL-2 = system: SK-MEL-2

COc1ccc2c(c1)CCC1=CC3(CCC12C)SCCS3 (stereo unspecified)
GI50 (RPMI-8226): 3.5 µM (inactive) | GI50 (MOLT-4): 3.8 µM (inactive) | GI50 (DU-145): > 10 µM (inactive) | GI50 (NCI-H23): 6.82 µM (inactive) | GI50 (COLO 205): 4.73 µM (inactive) | GI50 (OVCAR-8): > 10 µM (inactive) | GI50 (OVCAR-3): 3.3 µM (inactive) | GI50 (CAKI-1): 7.52 µM (inactive) | GI50 (U-251): 9.73 µM (inactive) | GI50 (SK-OV-3): 3.27 µM (inactive) | GI50 (T47D): 6.03 µM (inactive) | GI50 (SF-268): 3.13 µM (inactive) | GI50 (OVCAR-4): > 10 µM (inactive) | GI50 (HOP-92): 4.97 µM (inactive) | GI50 (TK-10): > 10 µM (inactive) | GI50 (UACC-257): > 10 µM (inactive) | GI50 (M14): 4.46 µM (inactive) | GI50 (SR): 4.41 µM (inactive) | GI50 (MDA-MB-435): 3.74 µM (inactive) | GI50 (SW-620): 4.56 µM (inactive) | GI50 (HOP-62): > 10 µM (inactive) | GI50 (SNB-75): 0.649 µM (active) | GI50 (HCT-15): 6.38 µM | GI50 (SF-295): 3.87 µM (inactive) | GI50 (BT-549): > 10 µM (inactive) | GI50 (ACHN): 5.3 µM (inactive) | GI50 (IGROV-1): 6.19 µM (inactive) | GI50 (KM12): 4.27 µM (inactive) | GI50 (NCI-H522): 2.99 µM (inactive) | GI50 (MDA-N): 2.59 µM (inactive) | GI50 (HCC 2998): 7.8 µM (inactive) | GI50 (SK-MEL-28): 5.24 µM (inactive) | GI50 (LOX IMVI): 7.06 µM (inactive) | GI50 (MCF7): 3.48 µM (inactive) | GI50 (CCRF-CEM): 3.97 µM (inactive) | GI50 (SNB-19): > 10 µM (inactive) | GI50 (MDA-MB-231): 4.08 µM (inactive) | GI50 (NCI/ADR-RES): 3.56 µM (inactive) | GI50 (HL-60): 2.81 µM (inactive) | GI50 (K562): 3.72 µM (inactive) | GI50 (SK-MEL-5): 6.93 µM (inactive) | GI50 (UACC-62): 4.14 µM (inactive) | GI50 (786-0): 5.64 µM (inactive) | GI50 (A549): 8.05 µM (inactive) | GI50 (SN12C): 9.25 µM (inactive) | GI50 (PC-3): 8.26 µM (inactive) | GI50 (Malme-3M): 5.35 µM (inactive) | GI50 (HT-29): 3.68 µM (inactive)

ClCc1c(-c2ccccc2)nn(-c2ccccc2)c1CCl
GI50 (RPMI-8226): 2.26 µM (inactive) | GI50 (DU-145): 14 µM (inactive) | GI50 (NCI-H23): 15.6 µM (inactive) | GI50 (COLO 205): 5.94 µM (inactive) | GI50 (OVCAR-8): 14.2 µM (inactive) | GI50 (OVCAR-3): 13.5 µM (inactive) | GI50 (CAKI-1): 1.83 µM (inactive) | GI50 (U-251): 12.3 µM (inactive) | GI50 (T47D): 2 µM (inactive) | GI50 (SF-268): 16.6 µM (inactive) | GI50 (OVCAR-4): 1.65 µM (inactive) | GI50 (HOP-92): 2.81 µM (inactive) | GI50 (TK-10): 14.6 µM (inactive) | GI50 (UACC-257): 15.3 µM (inactive) | GI50 (M14): 15.4 µM (inactive) | GI50 (SR): 2.33 µM (inactive) | GI50 (MDA-MB-435): 1.78 µM (inactive) | GI50 (SW-620): 2.03 µM (inactive) | GI50 (SNB-75): 4.18 µM (inactive) | GI50 (HCT-15): 12.2 µM | GI50 (SF-295): 17.2 µM (inactive) | GI50 (UO-31): 20.1 µM (inactive) | GI50 (BT-549): > 10 µM (inactive) | GI50 (NCI-H226): 26.5 µM (inactive) | GI50 (SF-539): 16.1 µM (inactive) | GI50 (IGROV-1): 6.79 µM (inactive) | GI50 (KM12): 13.2 µM (inactive) | GI50 (NCI-H522): 0.165 µM (active) | GI50 (MDA-N): 10.7 µM (inactive) | GI50 (HCC 2998): 13.9 µM (inactive) | GI50 (SK-MEL-28): 15.6 µM (inactive) | GI50 (MCF7): 8.2 µM (inactive) | GI50 (SNB-19): 18.6 µM (inactive) | GI50 (MDA-MB-231): > 10 µM (inactive) | GI50 (NCI/ADR-RES): 29.4 µM (inactive) | GI50 (HL-60): 3.14 µM (inactive) | GI50 (RXF 393): 12.4 µM (inactive) | GI50 (SK-MEL-5): 12.4 µM (inactive) | GI50 (UACC-62): 7.18 µM (inactive) | GI50 (786-0): 9.59 µM (inactive) | GI50 (A549): 16.5 µM (inactive) | GI50 (SN12C): 19.4 µM (inactive) | GI50 (HCT-116): 8.09 µM (inactive) | GI50 (PC-3): 9.71 µM (inactive) | GI50 (OVCAR-5): 19.4 µM (inactive) | GI50 (Malme-3M): 16.4 µM (inactive) | GI50 (SK-MEL-2): 13.2 µM (inactive) | GI50 (HT-29): 9.75 µM (inactive)
